Measured values as given in PubChem BioAssay (NCI).
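Cultured in 96-well plates, cells were exposed to test compound for 48 hours across five concentrations. The concentration for full growth arrest is given as TGI.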

Experiments:
Assay in all cases: NCI anticancer screen, dose series, 48 h
[1] = test system: A498 renal
[2] = test system: A549 NSCLC
[3] = test system: ACHN renal
[4] = test system: CCRF-CEM leukemia
[5] = test system: DLD-1 colon
[6] = test system: DMS 114 small cell lung
[7] = test system: DMS 273 small cell lung
[8] = test system: HCT-116 colon
[9] = test system: HCT-15 colon
[10] = test system: HL-60(TB) leukemia
[11] = test system: HOP-18 NSCLC
[12] = test system: HT29 colon
[13] = test system: IGROV1 ovarian
[14] = test system: K-562 leukemia
[15] = test system: KM12 colon
[16] = test system: LOX IMVI melanoma
[17] = test system: MALME-3M melanoma
[18] = test system: MOLT-4 leukemia
[19] = test system: NCI-H226 lung
[20] = test system: NCI-H23 lung
[21] = test system: NCI-H460 lung
[22] = test system: NCI-H522 lung
[23] = test system: OVCAR-3 ovarian
[24] = test system: OVCAR-8 ovarian
[25] = test system: RXF 393 renal
[26] = test system: SF-268 CNS
[27] = test system: SF-295 CNS
[28] = test system: SF-539 CNS
[29] = test system: SK-MEL-2 melanoma
[30] = test system: SK-MEL-28 melanoma
[31] = test system: SK-MEL-5 melanoma
[32] = test system: SK-OV-3 ovarian
[33] = test system: SN12C renal
[34] = test system: SNB-19 CNS
[35] = test system: SNB-78 CNS
[36] = test system: SW-620 colon
[37] = test system: TK-10 renal
[38] = test system: U251 CNS
[39] = test system: UACC-257 melanoma
[40] = test system: UACC-62 melanoma
[41] = test system: UO-31 renal
[42] = test system: XF 498 CNS
[43] = test system: CAKI-1 renal
[44] = test system: COLO 205 colon
[45] = test system: EKVX NSCLC
[46] = test system: HCC-2998 colon
[47] = test system: HOP-62 NSCLC
[48] = test system: HOP-92 NSCLC
[49] = test system: KM20L2 colon
[50] = test system: M14 melanoma
[51] = test system: M19-MEL melanoma
[52] = test system: OVCAR-4 ovarian
[53] = test system: OVCAR-5 ovarian
[54] = test system: RPMI-8226 leukemia
[55] = test system: SNB-75 CNS
[56] = test system: SR leukemia
[57] = test system: 786-0 renal
[58] = test system: BT-549 breast
[59] = test system: DU-145 prostate
[60] = test system: HS 578T breast
[61] = test system: MCF7 breast
[62] = test system: MDA-MB-231 breast
[63] = test system: MDA-MB-435
[64] = test system: MDA-N
[65] = test system: NCI/ADR-RES ovarian
[66] = test system: PC-3 prostate
[67] = test system: T-47D breast

Structure (SMILES): COc1ccc(/C=N/NC(=O)NCCCN(C)C)cc1
- TGI [1]: > 100 µM
- TGI [2]: > 100 µM
- TGI [3]: > 100 µM
- TGI [4]: > 100 µM
- TGI [5]: > 100 µM
- TGI [6]: > 100 µM
- TGI [7]: > 100 µM
- TGI [8]: > 100 µM
- TGI [9]: > 100 µM
- TGI [10]: > 100 µM
- TGI [11]: > 100 µM
- TGI [12]: > 100 µM
- TGI [13]: > 100 µM
- TGI [14]: > 100 µM
- TGI [15]: > 100 µM
- TGI [16]: > 100 µM
- TGI [17]: > 100 µM
- TGI [18]: > 100 µM
- TGI [19]: > 100 µM
- TGI [20]: > 100 µM
- TGI [21]: > 100 µM
- TGI [22]: > 100 µM
- TGI [23]: > 100 µM
- TGI [24]: > 100 µM
- TGI [25]: > 100 µM
- TGI [26]: > 100 µM
- TGI [27]: > 100 µM
- TGI [28]: > 100 µM
- TGI [29]: > 100 µM
- TGI [30]: > 100 µM
- TGI [31]: > 100 µM
- TGI [32]: > 100 µM
- TGI [33]: > 100 µM
- TGI [34]: > 100 µM
- TGI [35]: > 100 µM
- TGI [36]: > 100 µM
- TGI [37]: > 100 µM
- TGI [38]: > 100 µM
- TGI [39]: > 100 µM
- TGI [40]: > 100 µM
- TGI [41]: > 100 µM
- TGI [42]: > 100 µM

Structure (SMILES): O=C1CN2C(Cl)(Cl)C2(c2ccccc2)c2cc(Cl)ccc2N1CC(F)(F)F (stereo not drawn)
- TGI [3]: > 100 µM
- TGI [43]: > 100 µM
- TGI [4]: 42.3 µM
- TGI [44]: 39.3 µM
- TGI [5]: 42.9 µM
- TGI [6]: 66.6 µM
- TGI [7]: 72.7 µM
- TGI [45]: > 100 µM
- TGI [46]: 35.9 µM
- TGI [8]: 49.3 µM
- TGI [9]: 81.6 µM
- TGI [47]: 60.7 µM
- TGI [48]: 41.1 µM
- TGI [12]: 48.1 µM
- TGI [13]: 73.7 µM
- TGI [14]: 72.1 µM
- TGI [15]: 42.2 µM
- TGI [49]: > 100 µM
- TGI [16]: 39 µM
- TGI [50]: 77.5 µM
- TGI [51]: > 100 µM
- TGI [17]: 87 µM
- TGI [18]: 55.8 µM
- TGI [19]: 67 µM
- TGI [20]: 70.1 µM
- TGI [21]: 35.9 µM
- TGI [22]: 42.7 µM
- TGI [23]: 39 µM
- TGI [52]: 43.7 µM
- TGI [53]: > 100 µM
- TGI [24]: > 100 µM
- TGI [54]: 78.5 µM
- TGI [25]: 63.6 µM
- TGI [26]: > 100 µM
- TGI [27]: > 100 µM
- TGI [29]: 54.9 µM
- TGI [30]: 61 µM
- TGI [31]: 33.2 µM
- TGI [32]: > 100 µM
- TGI [33]: 30.6 µM
- TGI [55]: 51.2 µM
- TGI [56]: 69.9 µM
- TGI [36]: > 100 µM
- TGI [37]: > 100 µM
- TGI [38]: 37.8 µM
- TGI [39]: 51.9 µM
- TGI [40]: > 100 µM
- TGI [41]: > 100 µM

Structure (SMILES): CC(=O)OC(C)(C)N=Nc1ccc(Br)cc1
- TGI [57]: > 100 µM
- TGI [1]: > 100 µM
- TGI [2]: > 100 µM
- TGI [3]: 23.1 µM
- TGI [58]: > 100 µM
- TGI [43]: 48.3 µM
- TGI [4]: > 78.5 µM
- TGI [44]: 1.03 µM
- TGI [59]: > 100 µM
- TGI [45]: > 100 µM
- TGI [46]: > 100 µM
- TGI [8]: > 100 µM
- TGI [9]: > 100 µM
- TGI [10]: 28 µM
- TGI [47]: > 100 µM
- TGI [48]: 67.6 µM
- TGI [60]: > 100 µM
- TGI [12]: > 100 µM
- TGI [13]: > 100 µM
- TGI [14]: 21.4 µM
- TGI [15]: > 100 µM
- TGI [16]: 33.7 µM
- TGI [50]: > 100 µM
- TGI [17]: > 100 µM
- TGI [61]: > 100 µM
- TGI [62]: > 100 µM
- TGI [63]: > 100 µM
- TGI [64]: > 100 µM
- TGI [18]: > 90.3 µM
- TGI [19]: > 50.5 µM
- TGI [20]: > 100 µM
- TGI [21]: 26 µM
- TGI [22]: 33.8 µM
- TGI [65]: 76.7 µM
- TGI [23]: > 100 µM
- TGI [52]: > 100 µM
- TGI [53]: > 100 µM
- TGI [24]: 64.1 µM
- TGI [66]: > 100 µM
- TGI [54]: 36.2 µM
- TGI [25]: > 60.4 µM
- TGI [26]: > 100 µM
- TGI [27]: > 60.1 µM
- TGI [28]: > 100 µM
- TGI [29]: > 100 µM
- TGI [30]: > 100 µM
- TGI [31]: 6.26 µM
- TGI [32]: > 100 µM
- TGI [33]: > 100 µM
- TGI [34]: > 100 µM
- TGI [55]: > 91.5 µM
- TGI [56]: 43.3 µM
- TGI [36]: > 100 µM
- TGI [67]: 44.4 µM
- TGI [37]: > 87.9 µM
- TGI [38]: > 100 µM
- TGI [39]: 66.2 µM
- TGI [40]: > 100 µM
- TGI [41]: 15.9 µM

Structure (SMILES): c1ccc2sc(C3(N4CCCCC4)CCCCCC3)cc2c1
- TGI [57]: 47.4 µM
- TGI [1]: 33.7 µM
- TGI [2]: 80.9 µM
- TGI [3]: 35 µM
- TGI [58]: 52.7 µM
- TGI [43]: 64.2 µM
- TGI [4]: 26.1 µM
- TGI [44]: 31.8 µM
- TGI [59]: > 100 µM
- TGI [45]: 47.2 µM
- TGI [46]: 27.9 µM
- TGI [8]: 32.8 µM
- TGI [9]: 34.8 µM
- TGI [10]: 11.4 µM
- TGI [47]: 60.9 µM
- TGI [48]: 51.8 µM
- TGI [60]: 42 µM
- TGI [12]: 31.7 µM
- TGI [13]: 52.7 µM
- TGI [14]: 31 µM
- TGI [15]: 31.2 µM
- TGI [16]: 34.6 µM
- TGI [50]: 67.2 µM
- TGI [17]: 53.9 µM
- TGI [61]: 31.9 µM
- TGI [62]: 42.1 µM
- TGI [63]: 55.2 µM
- TGI [64]: > 100 µM
- TGI [18]: 29.6 µM
- TGI [19]: 33.7 µM
- TGI [20]: 43.3 µM
- TGI [21]: 38.6 µM
- TGI [22]: 32.8 µM
- TGI [65]: 45.8 µM
- TGI [23]: 37.2 µM
- TGI [52]: 76 µM
- TGI [53]: 36.7 µM
- TGI [24]: 72.5 µM
- TGI [66]: 29.3 µM
- TGI [54]: 28.7 µM
- TGI [25]: 28.6 µM
- TGI [26]: 46.7 µM
- TGI [27]: 49.1 µM
- TGI [28]: 38.2 µM
- TGI [29]: 68.4 µM
- TGI [30]: 21.6 µM
- TGI [31]: 31.3 µM
- TGI [32]: 66.7 µM
- TGI [33]: 41.4 µM
- TGI [34]: 39.4 µM
- TGI [55]: 42 µM
- TGI [56]: 36.7 µM
- TGI [36]: 25 µM
- TGI [67]: 31.6 µM
- TGI [37]: 49.2 µM
- TGI [38]: 31 µM
- TGI [39]: 34.9 µM
- TGI [40]: 80.4 µM
- TGI [41]: 60.8 µM
